Measurements published in ChEMBL document CHEMBL5380809, “Discovery of Novel N-Hydroxy-1,2,4-oxadiazole-5-formamides as ASM Direct Inhibitors for the Treatment of Atherosclerosis” (J Med Chem, 2023).
The source made the active and inactive calls. The calls are words filed in the database; no cut-off is given here.

Tests used:
HUVEC [1] = test: Upregulation of intracellular sphingomyelin level in HUVEC cells measured after 22 hrs by ELISA method; type: functional, cell-based; conditions: Homo sapiens, dose <= 5.0 µM
[2] = Half life in ICR mouse at 1 mg/kg, iv measured for 0.083 to 24 hrs by LC-MS/MS analysis; type: ADME, organism-based; conditions: in vivo, time 0.083-24 hrs
HUVEC [3] = test: Upregulation of intracellular sphingomyelin level in LPS-induced HUVEC cells measured after 22 hrs by ELISA method; type: functional, cell-based; conditions: Homo sapiens, dose <= 5.0 µM
[4] = Apparent volume of distribution in ICR mouse at 1 mg/kg, iv measured for 0.083 to 24 hrs by LC-MS/MS analysis; type: ADME, organism-based; conditions: in vivo, time 0.083-24 hrs, read-out: Vz
[5] = Tmax in ICR mouse at 1 mg/kg, iv measured for 0.083 to 24 hrs by LC-MS/MS analysis; type: ADME, organism-based; conditions: in vivo, time 0.083-24 hrs
Mus musculus [6] = test: In vivo inhibition of aSMase in C57BL/6 mouse assessed as decrease in plasma ceramide level at 6 to 40 mg/kg, ip bid for 1 week by ELISA method; type: functional, organism-based; conditions: dose 6-40 mg/kg, time 1.0 weeks
Mus musculus [7] = test: Antiatherosclerotic activity in high-fat diet fed ApoE-/- mouse assessed as reduction in plasma LDL-C level at 12 to 40 mg/kg, ip bid measured after 8 weeks; type: functional, organism-based; conditions: dose 12-40 mg/kg
[8] = Tmax in ICR mouse at 10 mg/kg, po measured for 0.083 to 24 hrs by LC-MS/MS analysis; type: ADME, organism-based; conditions: in vivo, time 0.083-24 hrs
[9] = Cmax in ICR mouse at 1 mg/kg, iv measured for 0.083 to 24 hrs by LC-MS/MS analysis; type: ADME, organism-based; set-up: time lower 0.083 hrs, dose 1 mg/kg, time upper 24 hrs, route iv; conditions: in vivo
Mus musculus [10] = test: Antiatherosclerotic activity in high-fat diet fed ApoE-/- mouse assessed as reduction in plasma ceramide level administered intraperitoneally twice daily measured after 8 weeks by ELISA method; type: functional, organism-based; conditions: dose 12-40 mg/kg, route ip
Mus musculus [11] = test: In vivo inhibition of aSMase in C57BL/6 mouse assessed as decrease in liver sphingomyelin level at 6 to 40 mg/kg, ip bid for 1 week by ELISA method; type: functional, organism-based; conditions: dose 6-40 mg/kg, time 1.0 weeks
Mus musculus [12] = test: Antiatherosclerotic activity in high-fat diet fed ApoE-/- mouse assessed as reduction in lipid plaque area administered intraperitoneally twice daily measured after 8 weeks by oil red O staining based analysis; type: functional, organism-based; conditions: dose 12-40 mg/kg, route ip
[13] = AUC (0 to t) in ICR mouse at 10 mg/kg, po measured for 0.083 to 24 hrs by LC-MS/MS analysis; type: ADME, organism-based; set-up: time upper 24 hrs, time lower 0.083 hrs, dose 10 mg/kg, route po; conditions: in vivo
HUVEC [14] = test: Antiinflammatory activity against HUVEC cells assessed as decrease in Ox-LDL-induced MCP-1 mRNA level at 5 uM measured after 22 hrs by RT-PCR analysis; type: functional, cell-based; conditions: Homo sapiens
[15] = Half life in ICR mouse at 10 mg/kg, po measured for 0.083 to 24 hrs by LC-MS/MS analysis; type: ADME, organism-based; conditions: in vivo, time 0.083-24 hrs
HUVEC [16] = test: Upregulation of extracellular sphingomyelin level in HUVEC cells upto 5 uM measured after 22 hrs by ELISA method; type: functional, cell-based; conditions: Homo sapiens
Mus musculus [17] = test: In vivo inhibition of aSMase in C57BL/6 mouse assessed as decrease in liver ceramide level at 6 to 40 mg/kg, ip bid for 1 week by ELISA method; type: functional, organism-based; conditions: dose 6-40 mg/kg, time 1.0 weeks
Mus musculus [18] = test: Antiatherosclerotic activity in high-fat diet fed ApoE-/- mouse assessed as reduction in plasma total cholesterol level at 12 to 40 mg/kg, ip bid measured after 8 weeks; type: functional, organism-based; conditions: dose 12-40 mg/kg
[19] = MRT (0 to t) in ICR mouse at 1 mg/kg, iv measured for 0.083 to 24 hrs by LC-MS/MS analysis; type: ADME, organism-based; conditions: in vivo, time 0.083-24 hrs
[20] = MRT (0 to infinity) in ICR mouse at 1 mg/kg, iv measured for 0.083 to 24 hrs by LC-MS/MS analysis; type: ADME, organism-based; conditions: in vivo, time 0.083-24 hrs
HUVEC [21] = test: Downregulation of intracellular ceramide level in Ox-LDL-induced HUVEC cells at 5 uM measured after 22 hrs by ELISA method; type: functional, cell-based; conditions: Homo sapiens
[22] = Clearance in ICR mouse at 1 mg/kg, iv measured for 0.083 to 24 hrs by LC-MS/MS analysis; type: ADME, organism-based; conditions: in vivo, time 0.083-24 hrs
[23] = target: T1, Sphingomyelin phosphodiesterase (Homo sapiens, UniProt P17405); test: Inhibition of recombinant human aSMase (62 to 628 residues) using HMU-PC as substrate incubated for 2 hrs by fluorescence based assay
T1 sequence (P17405 whole entry): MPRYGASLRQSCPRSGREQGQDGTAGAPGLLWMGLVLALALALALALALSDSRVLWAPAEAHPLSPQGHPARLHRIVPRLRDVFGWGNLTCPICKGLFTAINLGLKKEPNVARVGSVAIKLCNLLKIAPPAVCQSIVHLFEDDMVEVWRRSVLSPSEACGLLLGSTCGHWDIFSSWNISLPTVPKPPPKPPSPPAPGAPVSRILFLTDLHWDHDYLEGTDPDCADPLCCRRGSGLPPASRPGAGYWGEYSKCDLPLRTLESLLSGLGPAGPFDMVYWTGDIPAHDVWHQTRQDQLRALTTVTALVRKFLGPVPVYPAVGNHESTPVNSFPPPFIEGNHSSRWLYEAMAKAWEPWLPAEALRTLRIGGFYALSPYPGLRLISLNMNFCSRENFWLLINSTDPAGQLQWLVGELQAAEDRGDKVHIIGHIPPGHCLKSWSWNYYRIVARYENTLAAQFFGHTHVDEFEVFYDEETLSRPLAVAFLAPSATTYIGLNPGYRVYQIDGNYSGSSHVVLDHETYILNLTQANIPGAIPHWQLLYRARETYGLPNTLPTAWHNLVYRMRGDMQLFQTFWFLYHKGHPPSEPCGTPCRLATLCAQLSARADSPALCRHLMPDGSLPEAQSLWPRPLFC

HUVEC [24] = test: Antiinflammatory activity against HUVEC cells assessed as decrease in LPS-induced IL-6 level measured after 22 hrs by ELISA method; type: functional, cell-based; conditions: Homo sapiens, dose 1-5 µM
HUVEC [25] = test: Upregulation of extracellular sphingomyelin level in Ox-LDL-induced HUVEC cells upto 5 uM measured after 22 hrs by ELISA method; type: functional, cell-based; conditions: Homo sapiens
HUVEC [26] = test: Downregulation of extracellular ceramide level in HUVEC cells upto 5 uM measured after 22 hrs by ELISA method; type: functional, cell-based; conditions: Homo sapiens
HUVEC [27] = test: Downregulation of intracellular ceramide level in HUVEC cells at 5 uM measured after 22 hrs by ELISA method; type: functional, cell-based; conditions: Homo sapiens
Mus musculus [28] = test: In vivo inhibition of aSMase in C57BL/6 mouse assessed as decrease in liver S1P level at 6 to 40 mg/kg, ip bid for 1 week by ELISA method; type: functional, organism-based; conditions: dose 6-40 mg/kg, time 1.0 weeks
[29] = In vivo inhibition of aSMase in C57BL/6 mouse assessed as decrease in liver aSMase level at 40 mg/kg, ip bid for 1 week by ELISA method relative to control; type: functional; set-up: scale not given: the % may be the effect or the level left; conditions: time 1 weeks
[30] = Cmax in ICR mouse at 10 mg/kg, po measured for 0.083 to 24 hrs by LC-MS/MS analysis; type: ADME, organism-based; set-up: time upper 24 hrs, time lower 0.083 hrs, dose 10 mg/kg, route po; conditions: in vivo
[31] = AUC (0 to t) in ICR mouse at 1 mg/kg, iv measured for 0.083 to 24 hrs by LC-MS/MS analysis; type: ADME, organism-based; set-up: time 0.083-24 hrs, dose 1 mg/kg, route iv; conditions: in vivo

## O=C(NO)c1nc(-c2ccc(COc3ccc(Br)cc3)cc2)no1
HUVEC [1]
  Activity: Dose-Dependent Effect
[2]
  half-life: 12 min
HUVEC [3]
  Activity: Dose-Dependent Effect
[4]
  Vd: 1.28 L/kg
[5]
  Tmax: 4.98 min
Mus musculus [6]
  Activity: Active
Mus musculus [7]
  Activity: Active
[8]
  Tmax: 4.98 min
[9]
  Cmax: 787 ng/mL
Mus musculus [10]
  Activity: Dose-Dependent Effect
Mus musculus [11]
  Activity: Active
Mus musculus [12]
  Activity: Dose-Dependent Effect
[13]
  AUC(0-t): 805 ng·h/mL
HUVEC [14]
  Activity: Active
[15]
  half-life: 49.8 min
HUVEC [16]
  Activity: Active
Mus musculus [17]
  Activity: Active
Mus musculus [18]
  Activity: inactive
[19]
  MRT last: 4.62 min
[20]
  MRT inf: 5.22 min
HUVEC [21]
  Activity: Active
[22]
  clearance: 73.2 mL/min/kg
[23]
  IC50: 1500 nM
HUVEC [24]
  Activity: Dose-Dependent Effect
HUVEC [25]
  Activity: Active
HUVEC [26]
  Activity: Active
HUVEC [27]
  Activity: Active
Mus musculus [28]
  Activity: Active
[29]
  Activity: 22%
[30]
  Cmax: 2760 ng/mL
[31]
  AUC(0-t): 227 ng·h/mL
